# Like-named read-outs stand apart in the source and are kept apart here.
# Tests used:
# [1] = tested on: MDA-MB-231 tumour xenografts; test: MDA-MB-231 mouse xenograft breast cancer model, SPL8996, SPL9005 and SPL9006 study; details: cabazitaxel 10 mg/kg, days 1, 8 and 22
# Protocol: (§2) References to amounts dosed in mg/kg for the dendrimeric compounds are to the amounts of cabazitaxel that may theoretically be released by the dendrimers.
# (§3) Each of the dendrimers was pre-weighed in glass vials and stored at 20° C. until use, and dissolved in saline immediately prior to dosing. Cabazitaxel was purchased from a commercial supplier.
# (§4) Female Balb/c nude mice (age 7 weeks) were inoculated subcutaneously on the flank with 3.5×10^6 MDA-MB-231 cells in PBS:Matrigel (1:1). Mice were weighed and tumours measured twice weekly using electronic callipers. Tumour volume (mm^3) was calculated as length (mm)/2×width (mm)^2.
# Mice received a small dish containing a food supplement (mixed with food dust) daily. The experiment was ended on day 150 or earlier if an ethical endpoint was met.
# [2] = tested on: MDA-MB-231 tumour xenografts; test: MDA-MB-231 mouse xenograft breast cancer model, SPL9048 study; details: cabazitaxel 9 mg/kg
# Protocol: as §2, §3, §4
# Mice received a small dish containing a food supplement (mixed with food dust) daily. The experiment was ended on day 113 or earlier if an ethical endpoint was met.
# [3] = free cabazitaxel, triphasic PK model; cited from earlier work
# [4] = free drug, footnote of Table 1; cited from earlier work
# [5] = Pharmacokinetic analysis, plasma half-life after IV administration; details: rat, plasma, iv
# Protocol: The plasma half-lives of tritium labelled docetaxel and the construct from Experiment 8 (c) (prepared using tritium labelled docetaxel) after IV administration into rats were determined (Kaminskas, L. M., Boyd, B. J., Karellas, P., Krippner, G. Y., Lessene, R., Kelly, B and Porter, C. J. H. “The Impact of Molecular Weight and PEG Chain Length on the Systemic Pharmacokinetics of PEGylated Poly-L-Lysine Dendrimers” Molecular Pharm. 2008, 5, 449-463).
# PC-3 (Prostate) = test: Cell growth inhibition SRB assay; assay type: cell-based
# Protocol: (§1) All solutions were prepared in saline (except docetaxel which was made in ethanol). All solutions were stored at −20° C. All values were based on the equivalent drug loading.
# MCAS (Ovarian) = test: Cell growth inhibition SRB assay; assay type: cell-based
# Protocol: as §1
# MDA-MB-231 (Breast) = test: Cell growth inhibition SRB assay; assay type: cell-based
# Protocol: as §1
# H460 (Lung) = test: Cell growth inhibition SRB assay; assay type: cell-based
# Protocol: as §1
# ES2 (Ovarian) = test: Cell growth inhibition SRB assay; assay type: cell-based
# Protocol: as §1
# A549 (Lung) = test: Cell growth inhibition SRB assay; assay type: cell-based
# Protocol: as §1
# DU145 (Prostate) = test: Cell growth inhibition SRB assay; assay type: cell-based
# Protocol: as §1
# A2058 (Melanoma) = test: Cell growth inhibition SRB assay; assay type: cell-based
# Protocol: as §1
# HT29 (Colon) = test: Cell growth inhibition SRB assay; assay type: cell-based
# Protocol: as §1
# HCT116 (Colon) = test: Cell growth inhibition SRB assay; assay type: cell-based
# Protocol: as §1
# MDA-MB-231 tumours = test: Xenograft MDA-MB-231 efficacy study; assay type: in vivo, female Balb/c nude mice
# [6] = day 16, one day after final dose
# Protocol: The 20 mice were randomised into 5 groups of four mice (mean tumour volume ˜90 mm^3). Animals were eye bled in the morning for baseline blood cell counts and then drug dosing commenced later that day (day 1). […] A second eye bleed was performed on day 11 (Table 7 A-C). Mice were killed one day following the final drug dose (day 16).
# [7] = Maximum tolerated dose (MTD) study; assay type: in vivo, female Balb/c mice; details: intravenous once weekly for 3 weeks (day 1, 8 and 15)
# Protocol: Groups of female Balb/c mice were administered an intravenous injection of dendrimer (0.1 ml/10 g body weight) or docetaxel (0.05 ml/10 g body weight) once weekly for 3 weeks (day 1, 8 and 15). Mice were weighed daily and watched for signs of toxicity. Animals were monitored for up to 10 days following the final drug dose. Any mice exceeding ethical endpoints (≥20% body weight loss, poor general health) were immediately sacrificed and observations were noted. […] More than twice the dose of docetaxel could be safely administered using drug dendrimer construct compared to docetaxel alone.
# [8] = Plasma stability study: docetaxel release in mouse plasma; assay type: in vitro ADME; details: 37° C.
# Protocol: Protocol: To 0.5 mL of mouse plasma was added 0.1 mL of dendrimer solution (2 mg/mL, drug equivalent in saline). The mixtures were vortexed (30 s) then incubated at 37° C. At various timepoints (0.5, 2.5, 4.5, 22 hours) 0.1 mL aliquots were removed and added to 0.2 mL ACN. The resulting mixtures were vortexed (30 s), centrifuged (10 min, 4° C.) filtered and analysed by HPLC (C8, 3.9×150 mm, 5 μm, wavelength=243 nm, 10 μL injections, gradient: 40-80% ACN/H2O (1-7 min), 80% ACN (7-9 min), 80-40% ACN (9-11 min), 40% ACN (11-15 min), 10 mM ammonium formate, pH 7.40) which when compared against a standard (2 mg//mL) provided the concentration of free docetaxel in the sample.
# [9] = Water solubility study on drug loaded dendrimers; assay type: physicochemical
# Protocol: Protocol: To 30 mg of dendrimer (freeze-dried from water) was added 100 μL of deionised water. After mixing for 10 minutes, additional aliquots of water (10-30 μL per addition) were added with vortexing and incubation for 10 mins until full dissolution was obtained. This amount is represented in Table 1 as the water solubility of the dendrimer. The equivalent drug solubility is determined by multiplying the % drug loading/100 and is represented in Table 1 (column 3) as Equivalent drug solubility on dendrimer. Finally, the fold increase is obtained by dividing the Equivalent drug solubility on dendrimer by the solubility of the drug and is represented in Table 1 (column 4).
# [10] = Day 1, i.v. day 1, 8, 15, docetaxel 15 mg/kg, Exp 3 (b) 20 mg/kg, Exp 8 (c) […] mg/kg
compound,measurement,setting,value
"CO[C@H]1C(=O)[C@]2(C)[C@@H](OC)C[C@H]3OC[C@@]3(OC(C)=O)[C@H]2[C@H](OC(=O)c2ccccc2)[C@]2(O)C[C@H](OC(=O)[C@H](O)[C@@H](NC(=O)OC(C)(C)C)c3ccccc3)C(C)=C1C2(C)C [cabazitaxel, reference compound]",resumption of tumour growth by day,[1],≤ 60 days
same,tumours reaching an ethical tumour volume endpoint by day 98,[2],9 of 10
same,tumour regrowth evident by day,"[2]; days 1, 8 and 15",≤ 43 days
same,initial-phase half-life,[3],4 min
same,intermediate-phase half-life,[3],2 h
same,terminal-phase half-life,[3],95 h
"CC(=O)O[C@@]12CO[C@@H]1C[C@H](O)[C@@]1(C)C(=O)[C@H](O)C3=C(C)[C@@H](OC(=O)[C@H](O)[C@@H](NC(=O)OC(C)(C)C)c4ccccc4)C[C@@](O)([C@@H](OC(=O)c4ccccc4)[C@H]21)C3(C)C [Docetaxel, reference compound]",solubility of the drug in water,[4],The solubility of docetaxel and in water is 5 μg/mL
same,half-life,[5],< 1 h
same,GI50,"PC-3 (Prostate); PC-3, 72 hours, equivalent drug loading, average of duplicate",2.5 nM
same,GI50,"MCAS (Ovarian); MCAS, 72 hours, equivalent drug loading, average of duplicate",7 nM
same,GI50,"MDA-MB-231 (Breast); Homo sapiens, MDA-MB-231, 72 hours, equivalent drug loading, average of duplicate",3.5 nM
same,GI50,"H460 (Lung); Homo sapiens, NCI-H460, H460, 72 hours, equivalent drug loading, average of duplicate",1.5 nM
same,GI50,"ES2 (Ovarian); ES2, 72 hours, equivalent drug loading, average of duplicate",5 nM
same,GI50,"A549 (Lung); Homo sapiens, A549, 72 hours, equivalent drug loading, average of duplicate",3.5 nM
same,GI50,"DU145 (Prostate); Homo sapiens, DU-145, DU145, 72 hours, equivalent drug loading, average of duplicate",2.5 nM
same,GI50,"A2058 (Melanoma); Homo sapiens, A2058, 72 hours, equivalent drug loading, average of duplicate",2 nM
same,GI50,"HT29 (Colon); Homo sapiens, HT-29, HT29, 72 hours, equivalent drug loading, average of duplicate",1.5 nM
same,GI50,"HCT116 (Colon); Homo sapiens, HCT-116, HCT116, 72 hours, equivalent drug loading, average of duplicate",0.7 nM
same,Mean tumour Volumne mm^3 (sd),MDA-MB-231 tumours; [10],"111.94 (6.41), mm^3"
same,Mean tumour Volumne mm^3 (sd),"MDA-MB-231 tumours; Day 9, same doses","135.57 (18.85), mm^3"
same,Mean tumour Volumne mm^3 (sd),"MDA-MB-231 tumours; Day 19, same doses","49.92 (11.61), mm^3"
same,Mean tumour Volumne mm^3 (sd),"MDA-MB-231 tumours; Day 29, same doses","18.81 (2.09), mm^3"
same,Mean tumour Volumne mm^3 (sd),"MDA-MB-231 tumours; Day 40, same doses","10.75 (1.95), mm^3"
same,Mean tumour Volumne mm^3 (sd),"MDA-MB-231 tumours; Day 61, same doses","95.94 (33.08), mm^3"
same,Mean tumour Volumne mm^3 (sd),"MDA-MB-231 tumours; Day 81, same doses","478.67 (169.27), mm^3"
same,Mean tumour Volumne mm^3 (sd),"MDA-MB-231 tumours; Day 100, same doses","974.83 (302.59), mm^3"
same,Mean Tumour Weights (g) (sd),[6],0.048 g
same,Tolerated dose,[7],15 mg/kg docetaxel equivalents
BHALys[Lys]32[α-DGA-DTX]32[ε-PEG1100]32 [Example 3 (b)],GI50,PC-3 (Prostate),4.5 nM
same,GI50,MCAS (Ovarian),7 nM
same,GI50,MDA-MB-231 (Breast),0.5 nM
same,GI50,H460 (Lung),8 nM
same,GI50,ES2 (Ovarian),4 nM
same,GI50,A549 (Lung),3.5 nM
same,GI50,DU145 (Prostate),4 nM
same,GI50,A2058 (Melanoma),2 nM
same,GI50,HT29 (Colon),2 nM
same,GI50,HCT116 (Colon),1 nM
same,Mean tumour Volumne mm^3 (sd),MDA-MB-231 tumours; [10],"111.74 (6.65), mm^3"
same,Mean tumour Volumne mm^3 (sd),"MDA-MB-231 tumours; Day 9, same doses","84.02 (6.33), mm^3"
same,Mean tumour Volumne mm^3 (sd),"MDA-MB-231 tumours; Day 19, same doses","28.26 (1.91), mm^3"
same,Mean tumour Volumne mm^3 (sd),"MDA-MB-231 tumours; Day 29, same doses","10.46 (0.5), mm^3"
same,Mean tumour Volumne mm^3 (sd),"MDA-MB-231 tumours; Day 40, same doses","5.92 (1.31), mm^3"
same,Mean tumour Volumne mm^3 (sd),"MDA-MB-231 tumours; Day 61, same doses","4 (0), mm^3"
same,Mean tumour Volumne mm^3 (sd),"MDA-MB-231 tumours; Day 81, same doses","0.5 (0), mm^3"
same,Mean tumour Volumne mm^3 (sd),"MDA-MB-231 tumours; Day 100, same doses","0.5 (0), mm^3"
same,Mean tumour Volumne mm^3 (sd),"MDA-MB-231 tumours; Day 120, same doses","0.37 (0.12), mm^3"
same,Docetaxel release in plasma,[8]; 0.5 hours,8.5 percentage of total docetaxel
same,Docetaxel release in plasma,[8]; 2.5 hours,32.5 percentage of total docetaxel
same,Docetaxel release in plasma,[8]; 22 hours,73 percentage of total docetaxel
same,Mean Tumour Weights (g) (sd),[6],0.020 g
same,Water solubility of dendrimer,"[9]; deionised water, until full dissolution",89 mg/mL
same,Equivalent drug solubility on dendrimer,[9]; water solubility x % drug loading/100,23 mg/mL

# From patent US20240335548A1, “MACROMOLECULES” (Starpharma Pty Ltd, priority 2011, published 2024)
